One assay addresses Carbonic anhydrase 2 (Homo sapiens, UniProt P00918). The assay is described as follows: DRUGMATRIX: Carbonic Anhydrase II enzyme inhibition (substrate: 4-Nitrophenyl acetate (4-NPA)). It is filed as tissue-based, Erythrocyte. The following applies: erythrocyte; Not Active = under 50% inhibition at 10 µM.
In another assay the target is T1, Thromboxane-A synthase (Homo sapiens, UniProt P24557).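 Note: enzyme inhibition assay with PGH2 supplied as substrate; in other assays of this panel Not Active means under 50% inhibition at 10 µM.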
T1 sequence (P24557 whole entry): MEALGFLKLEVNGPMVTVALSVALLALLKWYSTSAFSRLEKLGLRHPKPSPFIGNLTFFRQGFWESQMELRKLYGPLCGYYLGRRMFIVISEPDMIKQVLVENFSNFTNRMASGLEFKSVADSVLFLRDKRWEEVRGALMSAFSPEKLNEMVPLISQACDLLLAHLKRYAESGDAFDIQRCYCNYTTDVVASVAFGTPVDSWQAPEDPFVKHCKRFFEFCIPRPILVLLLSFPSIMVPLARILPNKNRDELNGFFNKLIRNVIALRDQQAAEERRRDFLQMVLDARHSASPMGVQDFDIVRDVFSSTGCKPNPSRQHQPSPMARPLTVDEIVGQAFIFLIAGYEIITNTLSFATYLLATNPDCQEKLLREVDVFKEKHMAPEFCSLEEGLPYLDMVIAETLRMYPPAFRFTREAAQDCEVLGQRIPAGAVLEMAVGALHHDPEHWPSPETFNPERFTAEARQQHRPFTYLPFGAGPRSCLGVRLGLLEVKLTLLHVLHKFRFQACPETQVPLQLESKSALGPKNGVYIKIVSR
The experiment in a line: biochemical. It is filed as tissue-based, Platelet.

Another assay deals with T2, Calcitonin receptor (Homo sapiens, UniProt P30988).
T2 sequence (P30988 whole entry): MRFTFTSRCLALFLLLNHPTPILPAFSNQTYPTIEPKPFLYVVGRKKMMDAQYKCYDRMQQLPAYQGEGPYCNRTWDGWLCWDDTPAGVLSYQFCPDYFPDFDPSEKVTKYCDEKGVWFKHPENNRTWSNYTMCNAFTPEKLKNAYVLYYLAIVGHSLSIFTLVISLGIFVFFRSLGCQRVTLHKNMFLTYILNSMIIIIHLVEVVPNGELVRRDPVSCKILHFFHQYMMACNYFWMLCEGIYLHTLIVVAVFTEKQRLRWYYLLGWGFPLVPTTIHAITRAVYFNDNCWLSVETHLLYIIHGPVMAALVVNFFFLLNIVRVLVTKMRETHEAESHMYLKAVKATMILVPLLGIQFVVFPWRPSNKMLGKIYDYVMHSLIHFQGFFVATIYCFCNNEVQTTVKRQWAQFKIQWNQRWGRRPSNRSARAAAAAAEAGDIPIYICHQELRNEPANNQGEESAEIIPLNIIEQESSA
The format is cell membranes, Membrane. The note with it: t47d.

Assay [1] concerns the target T3, Alpha-1D adrenergic receptor (Homo sapiens, UniProt P25100). Note: in other assays of this panel Not Active means under 50% inhibition at 10 µM.
T3 sequence (P25100 whole entry): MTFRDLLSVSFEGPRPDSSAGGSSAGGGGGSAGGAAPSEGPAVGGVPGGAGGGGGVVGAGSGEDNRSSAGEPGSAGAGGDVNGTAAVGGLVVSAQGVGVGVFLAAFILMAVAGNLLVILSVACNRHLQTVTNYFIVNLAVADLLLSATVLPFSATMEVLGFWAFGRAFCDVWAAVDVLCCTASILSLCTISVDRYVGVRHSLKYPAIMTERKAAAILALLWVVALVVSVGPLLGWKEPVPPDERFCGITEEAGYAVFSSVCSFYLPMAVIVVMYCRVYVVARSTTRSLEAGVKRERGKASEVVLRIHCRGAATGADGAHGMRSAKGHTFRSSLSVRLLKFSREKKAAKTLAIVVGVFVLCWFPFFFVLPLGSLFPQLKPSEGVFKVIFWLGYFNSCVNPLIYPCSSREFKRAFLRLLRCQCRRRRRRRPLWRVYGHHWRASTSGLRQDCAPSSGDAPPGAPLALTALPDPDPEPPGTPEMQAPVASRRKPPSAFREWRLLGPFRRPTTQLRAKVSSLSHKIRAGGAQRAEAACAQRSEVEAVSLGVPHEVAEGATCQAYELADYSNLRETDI
The format is cell membranes, HEK293, Membrane. The note with it: for Ki: read-out: Ki.

In the next assay the target is T4, B2 bradykinin receptor (Homo sapiens, UniProt P30411). Note: in other assays of this panel Not Active means under 50% inhibition at 10 µM.
T4 sequence (P30411 whole entry): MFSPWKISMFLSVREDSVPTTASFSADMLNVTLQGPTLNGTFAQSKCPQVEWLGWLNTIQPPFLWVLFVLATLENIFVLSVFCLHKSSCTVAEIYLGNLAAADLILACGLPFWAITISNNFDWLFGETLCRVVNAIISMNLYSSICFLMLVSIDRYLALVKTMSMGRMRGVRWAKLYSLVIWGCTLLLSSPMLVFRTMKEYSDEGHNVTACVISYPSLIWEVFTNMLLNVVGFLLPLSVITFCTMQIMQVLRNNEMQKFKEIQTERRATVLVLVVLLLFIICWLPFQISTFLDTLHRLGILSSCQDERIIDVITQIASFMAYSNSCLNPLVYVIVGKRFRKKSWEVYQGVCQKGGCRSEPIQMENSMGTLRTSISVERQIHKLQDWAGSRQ
It is filed as cell membranes, Membrane. The following applies: chem-1.

In assay [2] the target is T5, Muscarinic acetylcholine receptor M4 (Homo sapiens, UniProt P08173). Note: in other assays of this panel Not Active means under 50% inhibition at 10 µM.
T5 sequence (P08173 whole entry): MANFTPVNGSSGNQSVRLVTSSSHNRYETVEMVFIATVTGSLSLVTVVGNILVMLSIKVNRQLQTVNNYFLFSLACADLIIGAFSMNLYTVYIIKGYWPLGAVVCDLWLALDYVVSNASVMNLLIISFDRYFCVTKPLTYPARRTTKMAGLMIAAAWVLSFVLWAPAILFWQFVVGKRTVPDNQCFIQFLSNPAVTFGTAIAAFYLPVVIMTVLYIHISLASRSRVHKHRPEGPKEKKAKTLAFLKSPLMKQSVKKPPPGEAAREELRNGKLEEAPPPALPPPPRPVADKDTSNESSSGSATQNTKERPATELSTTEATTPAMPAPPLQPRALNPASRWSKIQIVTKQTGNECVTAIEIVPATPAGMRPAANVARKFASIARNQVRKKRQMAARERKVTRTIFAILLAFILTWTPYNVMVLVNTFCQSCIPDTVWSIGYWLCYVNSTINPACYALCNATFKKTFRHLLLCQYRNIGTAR
It is filed as cell membranes, CHO-K1, Membrane.

In the next assay the target is T6, Cathepsin G (Homo sapiens, UniProt P08311).
T6 sequence (P08311 whole entry): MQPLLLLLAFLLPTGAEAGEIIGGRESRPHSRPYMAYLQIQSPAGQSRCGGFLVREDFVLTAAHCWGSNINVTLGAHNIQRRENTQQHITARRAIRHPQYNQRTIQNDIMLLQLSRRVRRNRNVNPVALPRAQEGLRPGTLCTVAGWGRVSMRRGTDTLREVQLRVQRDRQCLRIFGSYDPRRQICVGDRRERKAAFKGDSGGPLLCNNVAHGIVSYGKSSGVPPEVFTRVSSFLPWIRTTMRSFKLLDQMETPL
The format is tissue-based. The note with it: neutrophil.

In assay [3] the target is 5-hydroxytryptamine receptor 4 (Cavia porcellus, UniProt O70528). The format is cell membranes, Dunkin-Hartley, Striatum, Membrane. Note: in other assays of this panel Not Active means under 50% inhibition at 10 µM.
Chain of 5-hydroxytryptamine receptor 4 (O70528 whole entry): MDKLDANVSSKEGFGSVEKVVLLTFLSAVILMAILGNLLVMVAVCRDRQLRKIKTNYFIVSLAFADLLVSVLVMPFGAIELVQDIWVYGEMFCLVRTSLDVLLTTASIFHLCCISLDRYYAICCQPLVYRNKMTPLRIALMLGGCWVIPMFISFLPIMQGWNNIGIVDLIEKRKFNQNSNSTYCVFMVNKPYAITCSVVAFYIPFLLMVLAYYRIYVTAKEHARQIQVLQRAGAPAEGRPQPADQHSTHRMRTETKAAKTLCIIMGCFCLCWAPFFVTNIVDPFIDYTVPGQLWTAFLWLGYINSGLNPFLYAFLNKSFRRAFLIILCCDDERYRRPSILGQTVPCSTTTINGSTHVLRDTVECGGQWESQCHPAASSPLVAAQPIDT

As for `CC1=C(CC(=O)O)c2cc(F)ccc2/C1=C\c1ccc([S+](C)[O-])cc1` (configuration not stated), the IC50 entry (at Carbonic anhydrase 2; on Thromboxane-A synthase (platelet); on Calcitonin receptor; in assay [1] (hek293); against B2 bradykinin receptor; in assay [2] (cho-k1)) was “Not Active” each time. The IC50 entry (at Cathepsin G; in assay [3]) was “Not Active” each time.

Consider `N[C@H](CSC(=S)NCc1ccccc1)C(=O)O`, for which the IC50 result (against Carbonic anhydrase 2; at Thromboxane-A synthase (platelet); on Calcitonin receptor; in assay [1] (hek293); against B2 bradykinin receptor; in assay [2] (cho-k1)) was “Not Active” throughout. The IC50 entry (against Cathepsin G; in assay [3]) was “Not Active” in each case.

For `CC(=O)N[C@@H]1[C@H](Oc2c3cc4cc2Oc2ccc(cc2Cl)[C@@H](O[C@@H]2O[C@@H](CO)[C@@H](O)[C@H](O)[C@@H]2NC(C)=O)[C@@H]2NC(=O)[C@H](NC(=O)[C@@H]4NC(=O)[C@H]4NC(=O)[C@@H](Cc5ccc(c(Cl)c5)O3)NC(=O)[C@H](N)c3ccc(O)c(c3)Oc3cc(O)cc4c3)c3ccc(O)c(c3)-c3c(O[C@H]4O[C@H](CO)[C@@H](O)[C@@H](O)[C@@H]4O)cc(O)cc3[C@@H](C(=O)O)NC2=O)O[C@@H](CO)[C@@H](O)[C@@H]1O`, the IC50 result (on Carbonic anhydrase 2; against Thromboxane-A synthase (platelet); on Calcitonin receptor; in assay [1] (hek293); at B2 bradykinin receptor; in assay [2] (cho-k1)) was “Not Active” each time. The IC50 entry (at Cathepsin G; in assay [3]) was “Not Active” in each case.

`Clc1ccc2c(c1)C(N1CCNCC1)=Nc1ccccc1O2` [AMOXAPINE]: the IC50 (in general, the point on the concentration scale where inhibition reaches its midpoint) was “Not Active” against Carbonic anhydrase 2; “Not Active” at Thromboxane-A synthase (platelet); “Not Active” at Calcitonin receptor; 306 nM in assay [1] (read-out: IC50); “Not Active” on B2 bradykinin receptor; “Not Active” against Cathepsin G. In assay [3], the IC50 entry is given as “Not Active”. The Ki – broadly, a measure of affinity in units of concentration, obtained from inhibition or displacement – in assay [1] was 150 nM.

Consider `COc1cc2c(c(OC)c1OC)-c1ccc(OC)c(=O)cc1[C@@H](NC(C)=O)CC2` [COLCHICINE], for which the IC50 result (against Carbonic anhydrase 2; against Thromboxane-A synthase (platelet); on Calcitonin receptor; in assay [1] (hek293); against B2 bradykinin receptor; in assay [2] (cho-k1)) was “Not Active” throughout. The IC50 result (on Cathepsin G; in assay [3]) was “Not Active” each time.

For `CN1CCC(=C2c3ccccc3C=Cc3ccccc32)CC1` [CYPROHEPTADINE], the IC50 result on Carbonic anhydrase 2 was “Not Active”; at Thromboxane-A synthase (platelet), “Not Active”; at Calcitonin receptor, “Not Active”; in assay [1] (read-out: IC50), 107 nM; against B2 bradykinin receptor it was “Not Active”; in assay [2] (read-out: IC50), 16 nM. For the same compound, the IC50 entry (on Cathepsin G; in assay [3]) was “Not Active” throughout. The Ki in assay [1] was 53 nM; in assay [2] (read-out: Ki), 2.19 nM.

Consider `CC/C(=C(/CC)c1ccc(O)cc1)c1ccc(O)cc1` [DIETHYLSTILBESTROL], for which the IC50 result is “Not Active” against Carbonic anhydrase 2; 4360 nM on Thromboxane-A synthase (read-out: IC50); “Not Active” on Calcitonin receptor; 10800 nM in assay [1] (read-out: IC50); “Not Active” on B2 bradykinin receptor; “Not Active” in assay [2] (cho-k1). The IC50 entry (at Cathepsin G; in assay [3]) was “Not Active” throughout. The Ki in assay [1] turned out to be 5320 nM.

For the compound `CC(=O)N1CCN(c2ccc(OCC3COC(Cn4ccnc4)(c4ccc(Cl)cc4Cl)O3)cc2)CC1` (configuration not stated) [KETOCONAZOLE], the IC50 result against Carbonic anhydrase 2 is “Not Active”; on Thromboxane-A synthase (read-out: IC50), 2170 nM; on Calcitonin receptor, “Not Active”; in assay [1] (hek293) it was “Not Active”; against B2 bradykinin receptor, “Not Active”; in assay [2] (cho-k1), “Not Active”. The IC50 entry (against Cathepsin G; in assay [3]) was “Not Active” each time.

In the case of `C=CCN1CC[C@]23c4c5ccc(O)c4O[C@H]2C(=O)CC[C@@]3(O)[C@H]1C5` [NALOXONE], the IC50 entry (against Carbonic anhydrase 2; against Thromboxane-A synthase (platelet); at Calcitonin receptor; in assay [1] (hek293); against B2 bradykinin receptor; in assay [2] (cho-k1)) was “Not Active” each time. For the same compound, the IC50 result (against Cathepsin G; in assay [3]) was “Not Active” in each case.

As to `COCCOC(=O)C1=C(C)NC(C)=C(C(=O)OC(C)C)C1c1cccc([N+](=O)[O-])c1` (configuration not stated) [NIMODIPINE], the IC50 result (against Carbonic anhydrase 2; against Thromboxane-A synthase (platelet); at Calcitonin receptor; in assay [1] (hek293); against B2 bradykinin receptor; in assay [2] (cho-k1)) was “Not Active” each time. In addition, the IC50 result (on Cathepsin G; in assay [3]) was “Not Active” each time.

On to `CC(C)c1nc(CN(C)C(=O)N[C@H](C(=O)N[C@@H](Cc2ccccc2)C[C@H](O)[C@H](Cc2ccccc2)NC(=O)OCc2cncs2)C(C)C)cs1` [RITONAVIR], for which the IC50 entry (on Carbonic anhydrase 2; at Calcitonin receptor; in assay [1] (hek293); on B2 bradykinin receptor; in assay [2] (cho-k1); on Cathepsin G) was “Not Active” throughout. Moreover, the IC50 entry in assay [3] was “Not Active”.

For `Cc1onc(-c2ccccc2)c1-c1ccc(S(N)(=O)=O)cc1` [VALDECOXIB], the IC50 result (at Thromboxane-A synthase (platelet); on Calcitonin receptor; in assay [1] (hek293); on B2 bradykinin receptor; in assay [2] (cho-k1); on Cathepsin G) was “Not Active” in each case. Besides, the IC50 entry in assay [3] was “Not Active”.

The values are drawn from ChEMBL document CHEMBL1909046, “DrugMatrix in vitro pharmacology data”.
